Test results as given in patent publication US11987568B2, “Allosteric inhibitor of WEE1 kinase” (H. LEE MOFFITT CANCER CENTER AND RESEARCH INSTITUTE, INC., priority 2018, dated 2024).
Several values for one entry are separate records, joined by “and”; a condition that tells them apart may be missing. Identical values can stand only once. Values belong to the molecule of their own block, whether it stands above or below them.

Legend:
LAPC4 cells = experiment: LAPC4 cell proliferation, trypan blue exclusion assay; assay type: cell-based; details: Homo sapiens, 96 hr, viable cells by trypan blue exclusion
Source text: FIGS. 2A-2B show identification of 3 distinct types of inhibitors. […] In addition, the lysates were also subjected to by immunoblotting with […]-Cdc2 or actin antibodies (middle and bottom panels). […] The number vehicle treated cells were used as control and percent of surviving cells were plotted. […] The number of vehicle treated cells were used as control and percent of surviving cells were plotted. […] The number vehicle treated cells were used as control and percent of surviving cells were plotted. 7 of these epigenetic inhibitors in various assays such as cell proliferation assay, an in vitro kinase assay were performed and WEE1 autophosphorylation in vivo was determined. Prostate cancer derived LAPC4 cells were treated with inhibitors and its effect on cell proliferation was examined.

gamma-H2AX = experiment: DNA damage, gamma-H2AX immunoblot in LNCaP cells; assay type: cell-based, human; details: 3 μM, 12 hours (FIG. 3C)
Description: The reaction mix was then subjected to immunoprecipitated with WEE1 antibodies, followed by immunoblotting with pTyr antibodies (top panel). As a control, purified ACK1 protein was incubated in the reaction buffer containing ATP, in presence of 100 nM epigenetic inhibitors. The reaction mix was then subjected to immunoprecipitated with ACK1 antibodies, followed by immunoblotting with pTyr antibodies (bottom panel). […] In addition, the lysates were also subjected to immunoblotting with actin antibodies (bottom panel). […] In addition, the lysates were also subjected to immunoblotting with actin antibodies (bottom panel).
H2AX becomes phosphorylated on serine 139, called gamma-H2AX, is a marker of DNA damage as it localizes to sites of DNA strand breaks. This sensor then functions to trigger activation of the DNA damage response pathways. To assess whether any of the epigenetic inhibitors are potent DNA-damaging agents, cells were treated with the compounds followed by immunoblotting with gamma-H2AX antibodies.

[1] = tested on: histone H2B Tyr37-phopshorylation (pY37-H2B); experiment: WEE1 epigenetic activity in cells: pY37-H2B immunoprecipitation/immunoblot; assay type: cell-based, human; details: for H2B Tyr37-phopshorylation: 10 μM, 24 hours (FIG. 7A)
Source text: FIGS. 2A-2B show identification of 3 distinct types of inhibitors. […] In addition, the lysates were also subjected to by immunoblotting with pY15-Cdc2 or actin antibodies (middle and bottom panels). […] The number vehicle treated cells were used as control and percent of surviving cells were plotted.
FIGS. 4A-4B show structures of ‘hits’ identified in WEE1 epigenetic inhibitor screen. […] The reaction mix was then subjected to immunoprecipitated with WEE1 antibodies, followed by immunoblotting with pTyr antibodies. […] In addition, the lysates were also subjected to immunoblotting with actin antibodies (bottom panel).
FIGS. 7A-7C show identification of WEIN-159 as a potent WEE1 epigenetic inhibitor. […] In addition, lysates were immunoprecipitated with pY37-H2B antibodies, followed by immunoblotting with H2B antibodies (middle panel). […] The lysates were also subjected to immunoblotting with pY15-Cdc2 antibodies and were immunoprecipitated with pY37-H2B antibodies, followed by immunoblotting with H2B antibodies (middle panels). In addition, the lysates were also subjected to immunoblotting with H2B antibodies (bottom panel). […] The lysates were also subjected to immunoblotting with pY15-Cdc2 antibodies and were immunoprecipitated with pY37-H2B antibodies, followed by immunoblotting with H2B antibodies (middle panels). In addition, the lysates were also subjected to immunoblotting with actin antibodies (bottom panel).
Identification of compounds with WEE1 epigenetic inhibitory role: 14 ‘hits’ that were identified in the screen are shown in FIG. 1. These compounds were further tested for their ability to inhibit WEE1 epigenetic activity. Prostate cancer derived LNCaP cells were treated with 3 uM of compounds for 48 hours. Cells were harvested, lysates were prepared, and WEE1 epigenetic activity was detected by determining histone H2B Tyr37-phopshorylation (pY37-H2B). Lysates were also assessed for WEE1 cell cycle inhibitory activity by determining Cdc2 Tyr15-phosphorylation (pY15-Cdc2). […] These are named as ‘Cell Cycle’ inhibitors. […] These compounds are the ‘Epigenetic’ inhibitors.

[2] = target: full length human WEE1 kinase (Homo sapiens, UniProt P30291); experiment: ELISA based assay: WEE1 phosphorylation of biotinylated H2B peptide spanning Tyr37; assay type: biochemical; set-up: A full length human WEE1 kinase that was enzymatically active was purified from insect cell; ELISA assay % Inhibition: concentration or dose not given beside the values; details: for ELISA assay % Inhibition: Table 3, No peptide = 100, No inhibitor = 0
Chain of full length human WEE1 kinase (P30291 whole entry): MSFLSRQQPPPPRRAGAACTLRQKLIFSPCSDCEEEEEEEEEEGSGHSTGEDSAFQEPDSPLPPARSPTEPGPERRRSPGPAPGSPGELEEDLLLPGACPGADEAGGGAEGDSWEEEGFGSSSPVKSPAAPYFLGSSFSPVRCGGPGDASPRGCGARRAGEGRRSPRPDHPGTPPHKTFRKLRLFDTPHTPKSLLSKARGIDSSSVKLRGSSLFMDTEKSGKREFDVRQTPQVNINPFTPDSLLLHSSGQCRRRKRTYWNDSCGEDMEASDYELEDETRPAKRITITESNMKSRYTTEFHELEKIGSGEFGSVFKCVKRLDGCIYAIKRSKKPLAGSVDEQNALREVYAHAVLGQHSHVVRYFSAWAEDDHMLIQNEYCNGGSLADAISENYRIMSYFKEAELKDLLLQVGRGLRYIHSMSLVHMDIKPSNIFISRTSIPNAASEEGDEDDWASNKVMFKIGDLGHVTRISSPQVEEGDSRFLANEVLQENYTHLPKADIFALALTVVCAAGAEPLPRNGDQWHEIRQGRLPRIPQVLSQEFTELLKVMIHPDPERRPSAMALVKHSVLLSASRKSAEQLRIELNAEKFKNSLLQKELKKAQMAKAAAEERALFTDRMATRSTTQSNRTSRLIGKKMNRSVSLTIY
Source text: Designing of a Novel inhibitor Screening Platform: […] A full length human WEE1 kinase that was enzymatically active was purified from insect cell. […] NCI diversity set compound library ( 1600 compounds) was used for the screening.

[3] = tested on: Cdc2 Tyr15-phosphorylation (pY15-Cdc2); experiment: WEE1 cell cycle inhibitory activity in cells: pY15-Cdc2 immunoblot; assay type: cell-based, human; details: for Cdc Tyr-phopshorylation: 10 μM, 24 hours (FIG. 7A)
Source text: FIGS. 2A-2B show identification of 3 distinct types of inhibitors. […] In addition, the lysates were also subjected to by immunoblotting with […]-Cdc2 or actin antibodies (middle and bottom panels). […] The number vehicle treated cells were used as control and percent of surviving cells were plotted. […] In addition, the lysates were also subjected to immunoblotting with actin antibodies (bottom panel). Identification of compounds with WEE1 epigenetic inhibitory role: 14 'hits' that were identified in the screen are shown in FIG. 1. These compounds were further tested for their ability to inhibit WEE1 epigenetic activity. Prostate cancer derived LNCaP cells were treated with 3 uM of compounds for 48 hours. […] Lysates were also assessed for WEE1 cell cycle inhibitory activity by determining Cdc2 Tyr15-phosphorylation ([…]-Cdc2). […] These are named as 'Cell Cycle' inhibitors. […] These compounds are the 'Epigenetic' inhibitors.

Wee1 KD = target: T1, Wee1 KD (Homo sapiens, UniProt P30291); experiment: Differential Scanning Fluorimetry (DSF), Wee1 KD; assay type: binding; details: kinase domain purified from HEK293T cells
T1 construct: WEE1 & WEE2 (as control) kinase domains from mammalian cells (HEK293T cells) were purified
T1 sequence (P30291 299-569): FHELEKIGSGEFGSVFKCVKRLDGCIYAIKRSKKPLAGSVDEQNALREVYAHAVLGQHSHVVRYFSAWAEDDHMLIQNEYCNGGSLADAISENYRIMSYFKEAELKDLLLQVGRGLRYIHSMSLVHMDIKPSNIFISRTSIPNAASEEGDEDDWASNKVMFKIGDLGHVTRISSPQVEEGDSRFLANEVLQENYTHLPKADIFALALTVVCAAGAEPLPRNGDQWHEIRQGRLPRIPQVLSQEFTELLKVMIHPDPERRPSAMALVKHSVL
Description: (§1) Binding study of WEE1 epigenetic inhibitors: To identify the precise binding region/domain of WEE1 epigenetic inhibitors, WEE1 & WEE2 (as control) kinase domains from mammalian cells (HEK293T cells) were purified. The binding of inhibitors was assessed using Differential Scanning Fluorimetry (DSF).

Wee2 KD = target: T2, Wee2 KD (Homo sapiens, UniProt P0C1S8); experiment: Differential Scanning Fluorimetry (DSF), Wee2 KD; assay type: binding; details: kinase domain purified from HEK293T cells
T2 construct: WEE1 & WEE2 (as control) kinase domains from mammalian cells (HEK293T cells) were purified
T2 sequence (P0C1S8 212-486): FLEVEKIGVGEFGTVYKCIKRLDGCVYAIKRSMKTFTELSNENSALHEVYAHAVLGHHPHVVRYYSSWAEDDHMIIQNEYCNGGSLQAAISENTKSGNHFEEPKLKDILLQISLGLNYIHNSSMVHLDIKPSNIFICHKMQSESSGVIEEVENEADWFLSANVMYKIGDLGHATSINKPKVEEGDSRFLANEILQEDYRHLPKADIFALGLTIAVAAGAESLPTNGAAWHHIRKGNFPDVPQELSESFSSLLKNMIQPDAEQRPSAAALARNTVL
Description: as §1

LNCaP cells = experiment: Cell cycle analysis by propidium iodide staining; assay type: cell-based, human; details: 16 hours
Description: To further validate this observation, LNCaP cells were treated with WEIN-159 and 172 for 16 hours and cell cycle analysis was performed by propidium iodide staining.

[4] = tested on: global histone H3K18, H3K12 and H3K9 and H4K5 acetylation; experiment: Global histone acetylation after treatment; assay type: cell-based
Source text: FIGS. 15A-15B show restoration of H3K18 epigenetic marks by epigenetic inhibitor of WEE1 kinase.
FIGS. 16A-16D show restoration of H4K5 and H3K12 epigenetic marks by epigenetic inhibitor of WEE1 kinase.
Global upregulation of histone H3K18 and H3K12 acetylation upon WEIN-159 treatment: To further examine the effect of WEE1 inhibition, global histone H3K18, H3K12 and H3K9 and H4K5 acetylation was examined following WEIN-159 and WEIN-172 treatment. […] In contrast, H3K9 acetylation levels were not affected.

global histone levels = experiment: Global histone expression, qRT-PCR; assay type: cell-based, human; details: LNCaP 5 or 10 uM 16 hr; LAPC4 3.5 uM 48 hr
Source text: FIGS. 8A-8B show inhibition of WEE1 epigenetic activity lead to increased global histone expression. […] Total RNA was isolated followed by qRT-PCR with histone H3 and actin primers. […] Total RNA was isolated followed by qRT-PCR with histone H3 and actin primers.
WEIN-159 and WEIN-172 were further assessed by treatment of LNCaP and melanoma cell line B16, followed by determination of WEE1, H2B and Cdc Tyr-phopshorylation.

WEE1 [5] = experiment: Endogenous WEE1 auto-phosphorylation in cells (WEE1 IP, pTyr immunoblot); assay type: cell-based, human; details: LNCaP and melanoma cell line B16, 10 μM, 24 hours (FIGS. 7B and C)
Description: The reaction mix was then subjected to immunoprecipitated with WEE1 antibodies, followed by immunoblotting with pTyr antibodies (top panel). As a control, purified ACK1 protein was incubated in the reaction buffer containing ATP, in presence of 100 nM epigenetic inhibitors. The reaction mix was then subjected to immunoprecipitated with ACK1 antibodies, followed by immunoblotting with pTyr antibodies (bottom panel). […] In addition, the lysates were also subjected to immunoblotting with actin antibodies (bottom panel). […] In addition, the lysates were also subjected to immunoblotting with actin antibodies (bottom panel). […] In addition, the lysates were also subjected to immunoblotting with actin antibodies (bottom panel). To determine direct binding of these compounds causing WEE1 inhibition, a full length WEE1 kinase protein was incubated with the compounds. […] These inhibitors were further validated by assessing their ability to suppress endogenous WEEE activity; LNCaP cells were treated with 10 μM of these compounds overnight.

WEE1 protein = experiment: Pull-down assay with biotinylated inhibitor on streptavidin beads; assay type: binding; details: lysates of transfected HEK293T cells (FIGS. 11C and D)
Description: (§2) FIGS. 11A-11E show direct interaction between inhibitor and WEE1 kinase. […] FIGS. 11C-11E show biotinylated WEIN-159 and WEIN-172 immobilized onto streptavidin beads were incubated with lysates prepared from HEK293T cells transfected with MYC-tagged WEE1 deletion constructs, followed by immunoblotting with MYC antibodies.
(§3) Inhibitory activity of WEIN-159 and WEIN-172 was further validated by examining its direct-binding to WEE1 protein, using a pull-down assay. WEIN-159 and WEIN-172 were attached to biotin molecule (FIG. 10) and then immobilized onto streptavidin beads. Beads were incubated with cell lysate, washed and electrophoresed followed by immunoblottng with WEE1 antibodies.
(§4) To further identify region within WEE1 that may be involved in binding to inhibitor, a deletion strategy was employed wherein three deletions, A-WEE1, B-WEE1 and C-Wee1 were generated which were Myc-tagged (FIG. 11B). Constructs were transfected in HEK293T cells and lysates were incubated with biotin beads with bound WEIN-159 and 172.

WEE1 [6] = target: WEE1 (Homo sapiens, UniProt P30291); experiment: as above; assay type: binding; details: LNCaP cell lysates, WEE1 immunoblot (FIG. 11A)
Chain of WEE1 (Homo sapiens, UniProt P30291) (P30291 whole entry): as the sequence (P30291 whole entry) above
Description: as §2, §3, §4

[7] = LNCaP cells, 3 uM, 48 hours (FIG. 2A)
[8] = LNCaP and melanoma cell line B16, 10 μM, 24 hours (FIGS. 7B and C)

ELISA assay % Inhibition [2]: 54%
ΔTm for Wee1 KD (° C.) (Wee1 KD): 16.2 °C
ΔTm for Wee2 KD (° C.) (Wee2 KD): 11.9 °C
SMILES: C=CCn1c(=O)c2cnc(Nc3ccc(N4CCN(C)CC4)cc3)nc2n1-c1cccc(C(C)(C)O)n1 [AZD-1775, reference compound]
IC50 (LAPC4 cells): 350 nM
DNA damage (gamma-H2AX) (gamma-H2AX): intensified double-strand DNA breakage
H2B Tyr37-phosphorylation (pY37-H2B) [1, 7]: loss of both H2B and Cdc2-phosphorylation
Cdc2 Tyr15-phosphorylation (pY15-Cdc2) [3, 7]: loss of both H2B and Cdc2-phosphorylation
Cell Cycle Analysis G1 (LNCaP cells): 56.51
Cell Cycle Analysis G2/M (LNCaP cells): 4.27
Cell Cycle Analysis S (LNCaP cells): 39.22

ELISA Inhibition (%) ([2]; Table 1, several values in a cell are repeat determinations): 46% and 55%
SMILES: Nc1ccc(NC(=O)c2ccc(C(=O)Nc3ccc(N)cc3)o2)cc1 [SG5-111, N^2,N^5-bis(4-aminophenyl)furan-2,5-dicarboxamide]
H2B Tyr37-phopshorylation ([1]; LNCaP cells): almost complete loss of H2B Tyr37-phopshorylation
Cdc Tyr-phopshorylation ([3]; LNCaP cells): unaffected

ELISA assay % Inhibition [2]: 112%
binding of WEE1 protein to biotinylated inhibitor on streptavidin beads (WEE1 [6]): to lesser extent
SMILES: Cl.Nc1cccc(NC(=O)c2ccc(C(=O)Nc3cccc(N)c3)s2)c1 [WEIN-172]
H3K9 acetylation levels [4]: not affected
H3K18 acetylation ([4]; FIG. 15): significant increase in H3K18 acetylation
H3K12 acetylation ([4]; FIGS. 16 A and B): significant increase
H4K5 acetylation ([4]; FIGS. 16A and C): significant increase
H2B Tyr-phopshorylation [1, 8]: significant loss of WEE1 and H2B Tyr-phopshorylation
H2B Tyr37-phopshorylation ([1]; LNCaP cells): almost complete loss of H2B Tyr37-phopshorylation
global histone levels (real time PCR of H3 and H2B) (global histone levels): significant increase in global histone levels
Cdc Tyr15-phopshorylation [3, 8]: remained unaffected
Cdc Tyr-phopshorylation ([3]; LNCaP cells): unaffected
WEE1 Tyr-phopshorylation (WEE1 [5]): significant loss of WEE1 and H2B Tyr-phopshorylation
binding to MYC-tagged WEE1 deletion constructs (WEE1 protein): only full length WEE1 interacted with inhibitor
Cell Cycle Analysis G1 (LNCaP cells): 56.53
Cell Cycle Analysis G2/M (LNCaP cells): 16.29
Cell Cycle Analysis S (LNCaP cells): 27.18
